Assay results reported in patent publication US12365643B2, “Phenoxy carboxylic acid compounds and medical uses thereof” (QINGDAO RISING BIOTECHNOLOGY CO., LTD, priority 2018, dated 2025).

Tests used:
[1] = tested on: RAW264.7 mouse macrophages; assay: Determination of NO generation induced by LPS; assay type: cell-based; settings: 10 μM, 1 μg/mL LPS, 24 hours, RAW264.7 (FIG. 2)
Method: The results are expressed as the multiple of the NO content in the cell culture supernatant of the administration group (10 μM) as compared with that in the cell culture supernatant of the control group (DMSO group), in which compared with the control group, *P<0.05, **P<0.01, ***P<0.001.
NO is a reactive nitrogen species (RNS) and an important gas signal molecule. Macrophages could convert arginine into NO which participated in the body's inflammatory response. Therefore, determination of inhibitory activity of a drug on NO generation was one of the classic methods to evaluate drug's anti-inflammatory ability. RAW264.7 cells at exponential growth phase were inoculated into a 96-well plate at 1×10^4 cells/200 μL. well of medium. After adherence, the medium was discarded, and the cells were subjected to drug treatments. Normal group (serum-free medium), LPS model group (serum-free medium containing 1 μg/mL LPS), LPS+drug group (serum-free medium containing 1 μg/mL LPS, 10 μM gemfibrozil or the compound of the present application) were established, and 3 repeated wells were set for each group. After 24 hours incubation in incubator, cell supernatant of each well was collected and assay was performed according to the instructions of NO determination kit (Nanjing Jiancheng). The absorbance value of each well at wavelength of 540 nm was read and NO content was calculated.

[2] = tested on: PGC1α; assay: PGC1α mRNA expression by real-time quantitative PCR in HepG2; assay type: cell-based, human; settings: 1 μM, 6 hours, HepG2 (FIG. 5C)
Excerpt: (§1) Peroxisome proliferation factor activated receptor (PPAR) is an important nuclear receptor that regulates glycolipid metabolism, including three subtypes: α, β/δ and γ. Peroxisome proliferator-activated receptor γ coactivator 1α (PGC-1α) is its auxiliary transcriptional activator. Acyl-CoA oxidase 1 (ACOX1) is the first rate-limiting enzyme for fatty acid β oxidation. Fatty acid binding protein 1 (FABP1) is highly expressed in liver, and can bind fatty acid, heme and other molecules to reduce their toxicity and damage. Up-regulating the expression level of these genes helps to improve the body's metabolism, and their agonists are an important class of anti-metabolic drugs. After the compound of the present application (1 μM) and the control drug gemfibrozil (1 μM) were incubated with human liver cancer cells HepG2 for 6 hours, real-time fluorescent quantitative PCR method was used to determine the relative expression of mRNA of related genes in the cells.
(§2) The company which synthesized the primers was Suzhou Hongxun Biotechnology Co., Ltd. Tranzol reagent (Tranzol total RNA extraction reagent, TransGen Biotech) was used to extract total RNA from tissues. 5× All-In-One RT MasterMix reverse transcription kit (Abcam, USA) and real-time quantitative PCR Master Mix (Aidlab Biotechnologies Co., Ltd) were used. Bio-Rad CFX Connect™ Real-Time PCR Detection System for qPCR was used, and 2^−ΔΔCT method was used for data analysis. The expression level of mRNA in the normal control group was set to 1, and the relative expression level of mRNA in the administration group was calculated, so as to confirm whether the active compound affected the PPAR pathway, thereby further regulating lipid metabolism.

[3] = tested on: ACOX1; assay: ACOX1 mRNA expression by real-time quantitative PCR in HepG2; assay type: cell-based, human; settings: 1 μM, 6 hours, HepG2 (FIG. 5D)
Excerpt: as §1, §2

[4] = tested on: diabetes mellitus+NASH model mice; assay: Diabetes mellitus + non-alcoholic steatohepatitis (NASH) model; assay type: in vivo, mouse; settings: for AHDL (high density lipoprotein) / ALDL (low density lipoprotein) / ALT / AST / BUN / CHOL (total cholesterol) / CK / CREA / TGL (triglycerides) / activity of lowering triglycerides (in words) / total cholesterol content in blood (in words): 50 mg/kg intragastric once a day for 28 days; for blood glucose level: 50 mg/kg intragastric once a day for 28 days (FIG. 9); for body fat content (MRI): 50 mg/kg intragastric once a day for 28 days (FIG. 10); for weight ratio of epididymal white fat: 50 mg/kg intragastric once a day for 28 days (FIG. 11); for fat content in liver (Oil red O and H.E. staining): 50 mg/kg intragastric once a day for 28 days (FIGS. 12A-12B); for blood glucose level 14 days after the administration: 50 mg/kg intragastric once a day, day 14
Method: Animal model: Each db/db mouse was injected subcutaneously with 40% CCl4 solution (Beijing Tongguang Fine Chemical Co., Ltd.) at a dose of 0.72 mg/100 g for 4 consecutive weeks to obtain a diabetes mellitus+NASH model. In the experiment, 35 of the above model mice were used, and animals with blood glucose of about 7 to 13 mmol/L were selected. According to their blood glucose levels, they were randomly divided into a blank control group, a model group, a BJMU group (gemfibrozil), a BJMU-1 group, a BJMU-2 Group and a BJMU-3 group, 7 animals in each group (the model group and each administration group were modeled according to the animal modeling method). Intragastric administration was adopted with an administration volume of 10 ml/kg. The blank control group and the model group were administrated with 1% Tween 80-saline; the BJMU group was administrated with a dose of 50 mg/kg, the BJMU-1 group was administrated with a dose of 50 mg/kg, the BJMU-2 group was administrated with a dose of 50 mg/kg, and the BJMU-3 group was administrated with a dose of 50 mg/kg. The administration was performed once a day for 28 consecutive days. From the day of oral administration, the physiological changes of the animals were observed every day. Blood glucose was measured every week, and blood glucose difference (Δ) was calculated by the following formula: blood glucose difference (Δ)=the blood glucose of the day—the initial blood glucose (the initial blood glucose difference was zero). After the administration, the animals were sacrificed, and the internal organs and epididymal fat were taken out for experiments. White epididymal fat was taken from each group of mice and weighed. According to the corresponding body weight, the weight ratio of white fat was calculated. Before the mice were sacrificed, 3 mice in each group were randomly selected and subjected to magnetic resonance imaging (MRI) (EchoMRI-700 body fat tester) so as to measure body fat content. For mice in each experimental group, blood was collected and serum was separated, and liver was taken for wet-weight measurement after necropsy; liver tissue was taken and fixed for pathological examination, H.E. staining and oil red O staining (Wuhan Zishan Biotechnology Co., Ltd.) were performed, and mouse liver lesions were observed under light microscope; routine examination of blood was performed by Animal Laboratory Department, Health Science Center of Peking University to measure the following indexes: white blood cell count (WBC), red blood cell count (RBC), lymphocyte count (LY), platelet (PLT) and so on; biochemical laboratory examination of blood was performed by Laboratory Medicine, Third Hospital, Peking University to measure the following indexes: triglycerides (TG), total cholesterol (T-CHO), high-density lipoprotein cholesterol (HDL-C), low-density lipoprotein cholesterol (LDL-C) and so on.

Compound	NO generation induced by LPS [1]	PGC1α mRNA expression [2]	ACOX1 mRNA expression [3]	AHDL (high density lipoprotein) [4]	ALDL (low density lipoprotein) [4]	ALT [4]	AST [4]	BUN [4]	CHOL (total cholesterol) [4]	CK [4]	CREA [4]	TGL (triglycerides) [4]	activity of lowering triglycerides (in words) [4]	total cholesterol content in blood (in words) [4]	blood glucose level [4]	body fat content (MRI) [4]	weight ratio of epididymal white fat [4]	fat content in liver (Oil red O and H.E. staining) [4]	blood glucose level 14 days after the administration [4]
Cc1cc(OCCCC(C)(C)C(=O)O)c(C)cc1Br [BJMU-2, 5-(4-bromo-2,5-dimethylphenoxy)-2,2-dimethylpentanoic acid]	could inhibit NO generation	significantly induced PGC1α mRNA expression	significantly induced ACOX1 mRNA expression	2.15 ± 0.29 mmol/L	0.48 ± 0.05 mmol/L	115.57 ± 39.12 U/L	233.67 ± 47.75 U/L	11.95 ± 1.81 mmol/L	3.78 ± 0.45 mmol/L	1406.33 ± 458.77 U/L	22.5 ± 7.12 µmol/L	1.73 ± 0.41 mmol/L	had better activity of lowering triglycerides than gemfibrozil	could reduce total cholesterol content in blood	could significantly reduce the blood glucose level	could significantly reduce the body fat content	could significantly reduce the weight ratio of mouse epididymal fat	could significantly reduce the fat content in liver	almost returned to the normal level
Cc1ccc(C)c(OCCCC(C)(C)C(=O)O)c1 [gemfibrozil, Gemfibrozil, reference compound]	did not have an activity of inhibiting NO generation	could not activate PGC1α expression	could not activate ACOX1 expression	2.68 ± 0.31 mmol/L	0.7 ± 0.16 mmol/L	134.14 ± 38.71 U/L	235.14 ± 41.06 U/L	11.96 ± 2.26 mmol/L	5.37 ± 0.88 mmol/L	1222.14 ± 392.96 U/L	22.29 ± 3.45 µmol/L	1.86 ± 0.66 mmol/L	–	did not show an activity of lowering total cholesterol in blood	did not exhibit significant hypoglycemic activity	did not show an activity of reducing body fat	–	did not exhibit the aforementioned activity	–
Cc1cc(OCCCC(C)(C)C(=O)O)c(C)cc1F [BJMU-3, 5-(4-fluoro-2,5-dimethylphenoxy)-2,2-dimethylpentanoic acid]	could inhibit NO generation	significantly induced PGC1α mRNA expression	significantly induced ACOX1 mRNA expression	2.27 ± 0.84 mmol/L	0.52 ± 0.14 mmol/L	125.14 ± 51.99 U/L	257 ± 83 U/L	9.29 ± 3.44 mmol/L	4.42 ± 1.77 mmol/L	1674.71 ± 864.05 U/L	21.33 ± 10.52 µmol/L	1.86 ± 0.99 mmol/L	had better activity of lowering triglycerides than gemfibrozil	–	could significantly reduce the blood glucose level	could significantly reduce the body fat content	could significantly reduce the weight ratio of mouse epididymal fat	could significantly reduce the fat content in liver	almost returned to the normal level
Cc1cc(OCCCC(C)(C)C(=O)O)c(C)cc1Cl [BJMU-1, 5-(4-chloro-2,5-dimethylphenoxy)-2,2-dimethylpentanoic acid]	could inhibit NO generation	significantly induced PGC1α mRNA expression	significantly induced ACOX1 mRNA expression	2.34 ± 0.24 mmol/L	0.49 ± 0.06 mmol/L	114.86 ± 51.2 U/L	216.43 ± 60.6 U/L	9.89 ± 1.31 mmol/L	4.85 ± 0.7 mmol/L	1297.71 ± 814.48 U/L	19 ± 1.63 µmol/L	1.77 ± 0.65 mmol/L	had better activity of lowering triglycerides than gemfibrozil	–	could significantly reduce the blood glucose level	could significantly reduce the body fat content	–	could significantly reduce the fat content in liver	almost returned to the normal level
